Laboratory results as given in PMC9860980, “Pharmacokinetics and Pharmacodynamics (PK/PD) of Corallopyronin A against Methicillin-Resistant Staphylococcus aureus” (Pharmaceutics, 2022).

Columns and labels:
[1] = system: S. aureus strain ATCC 33591 (MRSA-strain); details: 5 mg/kg IP TID; 24 h post infection
Procedure: Organ samples were thawed and homogenized using a Polytron tissue homogenizer after addition of 3 mL isotonic sodium chloride solution. First, a calibration curve was prepared by spiking different concentrations of CorA into the respective matrix from CD-1 mice. Caffeine was used as an internal standard. In addition, quality control samples (QCs) were prepared for CorA for every matrix. For PD samples, calibration curve and QCs were prepared for levofloxacin using the same protocol. The following extraction procedure was used: 50 µL of a sample (calibration sample, QCs, PK or PD sample) was extracted with 20 µL of acetic acid in water (10/90 (v/v)) and 30 µL acetonitrile for 5 min at 800 rpm on an Eppendorf MixMate® vortex mixer. Then, samples were spun down for 20 min at 4 °C and 4000 rpm and supernatants were transferred to new Greiner 96-well V-bottom plates. Samples were analyzed using an Agilent 1290 Infinity II HPLC system (Waldbronn, Germany) coupled to an AB Sciex QTrap6500plus mass spectrometer (Darmstadt, Germany). LC conditions were as follows: column: Agilent Zorbax Exlipse Plus C18, 50 × 2.1 mm, 1.8 µm; temperature: 30 °C; injection volume: 5 µL per sample; flow rate: 800 µL/min. Samples were run under buffered conditions: A: 95% water + 5% acetonitrile + 5 mM ammonium acetate + 40 µL/L acetic acid; B: 95% acetonitrile + 5% water + 5 mM ammonium acetate + 40 µL/L acetic acid. The gradient was as follows: 99% A at 0 min, 99% A until 0.1 min, 99–0% A from 0.1 min to 4.0 min, 0% A until 4.5 min. Mass transitions for controls and compounds are depicted in Table S1. Peaks of PK samples were quantified using the calibration curve. The accuracy of the calibration curve was determined using QCs independently prepared on different days. PK parameters were determined using a non-compartmental analysis with PKSolver.
Inocula were prepared as described previously with the modification that isotonic sodium chloride solution was used instead of PBS [25]. For the neutropenic thigh and the neutropenic lung infection model the S. aureus strain ATCC 33591 (MRSA-strain) was used. For the neutropenic lung infection model an inoculum of 2 × 10^9 cfu/mL was used. For the neutropenic thigh infection model an inoculum of 7 × 10^5 cfu/mL was used.
The model was conducted as described previously. In brief, the following groups were used: (1) inoculum control group with terminal endpoint at 2 h post infection to determine baseline inoculum in vivo; (2) vehicle-treated group receiving 20 mg/kg SC tramadol and vehicle (PEG400/PBS (80:20 (v/v)); (3) levofloxacin group 5 mg/kg IP three times a day (TID) (t = 2, 6 and 10 h post infection); (4) CorA 60 mg/kg IP TID (t = 2, 6 and 10 h post infection) and (5) CorA 100 mg/kg IP BID (t = 2 and 6 h post infection). The endpoint for groups no. 2–5 was 24 h post infection. A solution of […].

[2] = system: S. aureus strain ATCC 33591 (MRSA-strain); test: Neutropenic lung infection model with MRSA; type: in vivo, Staphylococcus aureus; details: 100 mg/kg IP (t = 2 h post infection); 24 h post infection
Procedure: Female, 8-week-old CD-1 mice (Charles River, Sulzfeld, Germany) were used (n = 6 animals per group). Animals were rendered neutropenic by administration of 150 mg/kg and 100 mg/kg cyclophosphamide IP on days -4 and -1, respectively. On the day of infection (day 0), mice received 15 µL of the inoculum administered via an Aeroneb® nebulizer device (Kent Scientific, Torrington, CT, USA) under anesthesia (100 mg/kg ketamine and 10 mg/kg xylazine). Mice were treated with (I) vehicle IP (PEG400/PBS), (II) with levofloxacin at 100 mg/kg IP (t = 2 h post infection, positive control group), (III) CorA at 60 mg/kg IP TID (t = 2, 5 and 9 h post infection) or (IV) CorA at 60 mg/kg IP (t = 2 h post infection) and 100 mg/kg SC BID (t = 5 and 9 h post infection).
Twenty-four hours after infection, mice were euthanized, blood was removed from the heart and lungs were aseptically removed. Whole blood was collected into Eppendorf (Hamburg, Germany) tubes coated with 0.5 M EDTA, immediately spun down at 13,000 rpm for 10 min at 4 °C, the plasma transferred into a new Eppendorf tube and stored at −80 °C until analysis. Organs were homogenized in isotonic sodium chloride solution and plated onto blood agar plates in duplicates in serial dilutions and incubated at 37 °C for 24 h.

C[C@H]1COc2c(N3CCN(C)CC3)c(F)cc3c(=O)c(C(=O)O)cn1c23 [Levofloxacin, reference compound]
bacterial burden in thigh tissue [1]: significant reduction
reduction of bacterial burden in lung tissue compared to the vehicle-treated group [1]: approximately 2 log10-units
reduction in bacterial burden in lung tissue [2]: more than 2 log10-units
